We go through two molecules from US9221761B2, “Method for inhibition of deubiquitinating activity” (Vivolux AB, priority 2011, dated 2015).

For data set [1], the target named is T1, 19S RP (Homo sapiens, UniProt P54578+Q9Y5K5).
T1 construct: purchased Boston Biochem E-366
Kind of data set: Ubiquitin-cleavage assay (Ub-GFP, ubiquitinated Hdm2). It counts as biochemical. Particulars: 19S RP 25 nM, 50 μM compound, 10 min. The protocol:
Recombinant ubiquitin-GFP is a substrate for 19S RP DUB activity (15). […] The type of ubiquitin bonds present in the polyubiquitin chain determines the fate of an ubiquitin-modified substrate.
Ubiquitin-cleavage assay. The recombinant Ub-GFP plasmid pet19b Ub-M-GFP is generated as described (30). In brief recombinant Ub-GFP is purified from BL21 E. coli cells by His affinity purification. For cleavage assays 19S RP (25 nM) is incubated with 10 mM NEM, 250 μM TPEN or 50 μM of the compound of the invention for 10 min followed by the addition of recombinant Ub-GFP (200 nM). Ubiquitin chain disassembly reactions are performed essentially as above except K48- or K63-linked ubiquitin tetramers (50 ng) are substituted for Ub-GFP. The level of Ub-GFP cleavage or ubiquitin disassembly is determined by immunoblotting with anti ubiquitin antibodies. The ubiquitinated Hdm2 substrate is generated according to the Boston Biochem protocol (K-200). For the cleavage assay 19S RP (25 nM) is incubated with 50 μM of the compound of the invention or DMSO for 10 min followed by the addition of ubiquitinated Hdm2 substrate (100 nM). The cleavage of ubiquitinated Hdm2 substrate and ubiquitinated Hdm2 is determined by immunoblotting with anti-Hdm2 antibodies.

In data set [2] the test system is HCT116 colon cancer cells. Kind of data set: Apoptosis in isogenic clones of HCT116 colon cancer cells. It counts as cell-based. The source says:
The increase in sub G1 DNA, caspase-3 activation and cleavage of poly-ADP ribose polymerase (PARP) and cytokeratin is associated with an overall decrease in cell viability at drug concentrations that induce the accumulation of polyubiquitin connecting UPS inhibition and apoptosis. Apoptosis induction by bortezomib is sensitive to the status of the p53 tumor suppressor and over-expression of the anti-apoptotic Bcl-2 oncoprotein (11, 12). […] Cell culture. MCF7 cells are maintained in MEM/10% fetal calf serum. HCT-116 p53+/+, p53−/−, Bcl-2+/+, PUMA−/− and BAX−/− cells are maintained in McCoy's 5A modified medium/10% fetal calf serum. The HCT-116 p53+/+, p53−/−, PUMA−/− and BAX−/− are generated as described (25). The HCT-116 Bcl-2+/+ cell line was generated by transfecting parental HCT-116 p53+/+ cells with pCEP4 Bcl-2 (Addgene plasmid 16461) (26) and isolating high expression clones. FaDu and LLC3 cells are maintained in DMEM high glucose medium supplemented with 10% fetal calf serum, Na pyruvate, Hepes and non-essential amino acids. 4T1.12B carcinoma cells are maintained in RPMI medium supplemented with 10% fetal calf serum. The proteasome reporter cell line MelJuSo Ub-YFP was generated as described (12). […] Cell viability is determined by measuring acid phosphatase activity or using the FMCA method (32). […] Absorbance is measured at 405 nm. […]

In data set [3] the test system is HCT-116 cells. The data set is described as follows: Cell cycle arrest and DNA damage markers. It counts as cell-based.
The subject of data set [4] is HCT116. The data set is described as follows: FMCA (Fluorometric Microculture Cytotoxicity Assay) cytotoxicity. The class given is cell-based. An outline of the steps:
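HCT-116 cells exposed continuously to compound for 72 h; viability read by FMCA fluorescence. Survival index is test-well fluorescence as percent of untreated controls, blank subtracted.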

In data set [5] the test system is MelJuSo Ub-YFP reporter cell line. The data set is described as follows: Proteasome inhibition in reporter cell line, YFP accumulation in IncuCyte-FLR. It counts as cell-based. The note with it: Table 2; YFP accumulation measured for 48 hours. The procedure, abridged: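 MelJuSo Ub-YFP reporter cells, which accumulate YFP when the proteasome is inhibited, were exposed to compound. YFP accumulation was followed for 48 hours by automated fluorescence microscopy. Number of positive cells per field served as the proteasome-inhibition measure.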

A short description of data set [6]: Dissolution in 25% by weight Kolliphor HS15. The class given is physicochemical. Particulars: 18 mg starting weight, 25% w/w Kolliphor HS15, ultrasound about 50° C., non-dissolved residue deducted. The protocol: Pharmaceutical composition E (solution). For intraperitoneal administration a 25% by weight Kolliphor HS15 stock solution was prepared by melting an entire container of Kolliphor HS15 (Sigma 42966) by warming to 60° C. and diluting with deionized water to 25% w/w. To compound #1570 (18.0 mg) in a 10 mL sample tube was added 10.0 mL of the stock solution and the tube vortexed, treated with ultrasound at about 50° C. for about 2 h, and occasionally heated to about 83° C. […] By the same procedure solutions of compounds #1546 and #1571 were prepared; these compounds were however not fully dissolved. The non-dissolved residue was weighed, and the weight deducted from the starting weight of compound (18 mg).

SMILES strings stand for the structures.

Take `C=CC(=O)N1C/C(=C\c2ccc([N+](=O)[O-])cc2)C(=O)/C(=C/c2ccc([N+](=O)[O-])cc2)C1` [b-AP15]: the “cleavage of Ub-GFP and ubiquitinated HDM2 by 19S RP” value in data set [1] is “efficiently inhibited”. Further, in data set [2], the “sensitivity of induced apoptosis to over-expression of Bcl-2 and disruption of p52, BAX or PUMA” value is “insensitive”. Besides, the “genotoxicity (DNA damage markers phosphorylated p53 Ser 15, H2AX Ser 139)” value in data set [3] is on record as “not a genotoxic agent”.
One may read the IC50 as the concentration that gives 50% inhibition. Higher therefore signals a need for much substance. For `C=CC(=O)N1CCC(=Cc2ccc([N+](=O)[O-])cc2)C(=O)C(=Cc2ccc([N+](=O)[O-])cc2)C1` [Compound 1546], the “cytotoxicity relative to structurally corresponding compounds with a 6-membered ring moiety” value in data set [4] (HCT-116, 72 hours, survival index, FIGS. 3b, 3d, 3f) is given as “more cytotoxic”. In data set [4] (Table 2, 72 hours of continuous compound exposure), this molecule showed an IC50 of 1200 nM. The “MeJuSo-UB, lowest effective conc.” value in data set [5] turned out to be 2 µM. Moreover, the “amount of compound contained in prepared solution (10 ml)” value in data set [6] is on record as 8.5 mg.
